Test results published in patent US20210369720A1, “SYNERGISTIC COMPOSITION HAVING NEUROPROTECTIVE PROPERTIES AND METHODS OF USE THEREOF” (Rutgers, The State University of New Jersey, priority 2018, published 2021).

Experiments:
[1] = tested on: PP2A; experiment: Western blot of PP2A methylation, striatal tissue lysates of Syn^Tg mice; type: in vivo; conditions: normalized to total PP2A, EHT 12 mg/kg/day and/or caffeine 50 mg/kg/day
Text: (§1) Thy1-α-synuclein transgenic mice (Syn^Tg) on BDF1 background overexpressing human wild-type α-synuclein under the control of the Thy1 promoter were maintained by mating heterozygous transgenic females with WT BDF1 males (Rockenstein E, et al. (2002) Differential neuropathological alterations in transgenic mice expressing alpha-synuclein from the platelet-derived growth factor and Thy-1 promoters. J Neurosci Res 68(5):568-578). BDF1 mice (mixed C57BL/6-DBA/2) were generated every three months by mating female C57BL/6 (The Jackson Laboratory) and male DBA/2 mice (Charles River). Experiments were performed with male transgenic mice and their WT littermates. […] Wild-type littermates received regular water and control chow. […] At two months of age, mice were inoculated with α-Syn PFF unilaterally in the striatum. These treatments continued throughout the experiment until animals were sacrificed. Mice were weighed and their food and water intake was quantified weekly. Animals were housed 2-5/cage in an AAALAC approved facility in a temperature- and humidity-controlled environment under a 12-hour light/dark cycle and were maintained on a diet of lab chow and water ad libitum. All animal procedures were approved by the Rutgers-Robert Wood Johnson Medical School Institutional Animal Care and Use Committee and were performed according to the National Institutes of Health Guide for the Care and Use of Laboratory Animals.
(§2) Human neuroblastoma SH-SY5Y cells were cultured in DMEM-F12 with 10% FBS. At 50% confluency, cells were treated with 1 gg/ml mouse α-Syn PFF in DMEM-F12 with 1% FBS for 7 days. Medium was refreshed every 3 days. Cell harvesting was done with 2% SDS in PBS supplemented with protease inhibitor (Millipore) and phosphatase inhibitor (Sigma-Aldrich). Lysates were sonicated and boiled at 95° C. for 5 minutes. Protein concentration was determined by bicinchonic acid (BCA) method (Pierce), equal amount of protein was separated on 5-20% SDS-PAGE gel (Genescript) and transferred to nitrocellulose or PVDF membrane (Biorad). Following transfer, membranes were blocked for 1 hour at room temperature in blocking buffer (Li-Cor) or 5% (w/v) BSA/TBS-Tween 0.1% (v/v). Primary antibodies were diluted in blocking buffer or 5% (w/v) BSA/TBS-Tween 0.1% (v/v) and incubated with the membranes at 4° C. overnight. Membranes were washed three times in TBS-Tween and incubated in diluted IRDye 800CW or HRP conjugated secondary antibody for 1 hour at room temperature. Following washing, membranes were scanned by Li-Cor Odyssey CLx infrared imaging system or treated with the Western Lightning ECL-plus reagents (PerkinElmer) and exposed to autoradiography films (LabScientific).

[2] = tested on: Syn^Tg mice; experiment: Rotarod, Syn^Tg mice; type: in vivo; conditions: EHT 12 mg/kg/day in chow and/or caffeine 50 mg/kg/day in drinking water from weaning until six months of age, vs untreated Syn^Tg mice
Text: as §1, with “All animal procedures were approved by the Rutgers-Robert Wood Johnson Medical School Institutional Animal Care and Use Committee and were performed according to the National Institutes of Health Guide for the Care and Use of Laboratory Animals.” left out

[3] = tested on: p-α-Syn; experiment: Western blot of p-α-Syn in SH-SY5Y cells challenged with α-Syn PFF; type: cell-based, Human; conditions: SH-SY5Y cells challenged with mouse α-Syn PFF for 7 days; caffeine and/or EHT added to the medium
Description: as §2

[4] = tested on: Tyrosine hydroxylase (TH); experiment: Striatal TH staining, α-Syn PFF inoculated WT mice; type: in vivo; conditions: EHT 12 mg/kg/day and/or caffeine 50 mg/kg/day, vs untreated α-Syn PFF inoculated mice
Text: as §1, with “All animal procedures were approved by the Rutgers-Robert Wood Johnson Medical School Institutional Animal Care and Use Committee and were performed according to the National Institutes of Health Guide for the Care and Use of Laboratory Animals.” left out

[5] = tested on: Syn^Tg mice; experiment: Morris Water Maze, Syn^Tg mice; type: in vivo; conditions: EHT 12 mg/kg/day in chow and/or caffeine 50 mg/kg/day in drinking water from weaning until six months of age, vs untreated Syn^Tg mice
Text: as §1, with “All animal procedures were approved by the Rutgers-Robert Wood Johnson Medical School Institutional Animal Care and Use Committee and were performed according to the National Institutes of Health Guide for the Care and Use of Laboratory Animals.” left out

[6] = tested on: phosphorylated α-synuclein (p-α-Syn); experiment: Immunohistochemical staining of p-α-Syn, α-Syn PFF inoculated WT mice; type: in vivo; conditions: EHT 12 mg/kg/day and/or caffeine 50 mg/kg/day, vs untreated α-Syn PFF inoculated mice
Text: as §1
α-Syn PFF solution was sonicated at 60% amplitude 30 times (0.5 sec on, 0.5 sec off). During the stereotactic surgery, two month old WT C57BL/6 mice were anesthetized by Ketamine/xylazine (90/4.5 mg/kg, i.p., Ketaset from Zoetis, and Anased from Akorn) and positioned in a digital stereotaxic apparatus (Stoelting, Wood Dale, Ill.). A midline sagittal incision was made in the scalp, and a hole was drilled in the skull over the right striatum according to the coordinates below. All injections were made using a Hamilton neuros syringe equipped with a 33 gauge needle and attached to a Quintessential Stereotaxic Injector (Stoelting, Wood Dale, Ill.). A total of 5∝g/2.5 ul of α-Syn PFF was infused in the dorsal striatum (+0.2 mm relative to Bregma, +2.0 mm from midline, +2.6 mm beneath the dura) at a delivery rate of 0.2∝l/min (61). The needle was kept in place for 5 min following the infusion to prevent reflux before withdrawing.
Immunohistochemical analyses were performed as described previously (Lee et al., 2011; 2012). Mice were perfused transcardially with PBS, and brains were removed and post-fixed in 10% formalin at 4° C. overnight. Fixed brains were then sectioned coronally in 30 am thickness using a cryostat and collected as sets of slices with the same interval. Free-floating sections were blocked by 1% BSA and 0.2% Triton X100 in PBS. Sections were then incubated with primary antibody overnight at 4° C. and biotinylated secondary antibody for 1 hour at room temperature.
Vectastain elite ABC kit (Vector Laboratories, Burlingame, Calif.) and 3,3′-diaminobenzidine (Sigma-Aldrich) were used for amplifying and color development. Images were captured by Nikon Eclipse 55i. Staining intensity and phosphorylated α-synuclein (p-α-Syn) aggregate counts were obtained by Image Pro Plus. Intensity calibration was set to the level of a blank area in each image. HSI (hue, saturation and intensity) was used for the color selection with the standard parameters of H: 0-30, S: 0-255 and I: 0-160. […]

[7] = tested on: phosphorylated α-synuclein (p-α-Syn); experiment: Western blot of p-α-Syn in cortical tissue lysates, Syn^Tg mice; type: in vivo; conditions: EHT 12 mg/kg/day and/or caffeine 50 mg/kg/day until six months of age, vs untreated Syn^Tg mice
Text: as §1, with “Animals were housed 2-5/cage in an AAALAC approved facility in a temperature- and humidity-controlled environment under a 12-hour light/dark cycle and were maintained on a diet of lab chow and water ad libitum. All animal procedures were approved by the Rutgers-Robert Wood Johnson Medical School Institutional Animal Care and Use Committee and were performed according to the National Institutes of Health Guide for the Care and Use of Laboratory Animals.” left out
(§3) Human neuroblastoma SH-SY5Y cells were cultured in DMEM-F12 with 10% FBS. […] Protein concentration was determined by bicinchonic acid (BCA) method (Pierce), equal amount of protein was separated on 5-20% SDS-PAGE gel (Genescript) and transferred to nitrocellulose or PVDF membrane (Biorad). […]

[8] = tested on: α-Syn PFF inoculated WT mice; experiment: Wire Hang test, α-Syn PFF inoculated WT mice; type: in vivo; conditions: EHT 12 mg/kg/day in diet and/or caffeine 50 mg/kg/day in drinking water from weaning, 6 months post-inoculation
Text: as §1, with “All animal procedures were approved by the Rutgers-Robert Wood Johnson Medical School Institutional Animal Care and Use Committee and were performed according to the National Institutes of Health Guide for the Care and Use of Laboratory Animals.” left out

[9] = tested on: Syn^Tg mice; experiment: Wire Hang test, Syn^Tg mice; type: in vivo; conditions: EHT 12 mg/kg/day in chow and/or caffeine 50 mg/kg/day in drinking water from weaning until six months of age, vs untreated Syn^Tg mice
Text: as §1, with “All animal procedures were approved by the Rutgers-Robert Wood Johnson Medical School Institutional Animal Care and Use Committee and were performed according to the National Institutes of Health Guide for the Care and Use of Laboratory Animals.” left out

[10] = tested on: dopamine; experiment: Striatal dopamine content by HPLC-MS, α-Syn PFF inoculated WT mice; type: in vivo; conditions: each compound alone, EHT 12 mg/kg/day or caffeine 50 mg/kg/day, vs untreated α-Syn PFF inoculated mice
Text: as §1, with “All animal procedures were approved by the Rutgers-Robert Wood Johnson Medical School Institutional Animal Care and Use Committee and were performed according to the National Institutes of Health Guide for the Care and Use of Laboratory Animals.” left out

[11] = tested on: SH-SY5Y cells; experiment: Cytotoxicity of α-Syn PFF by propidium iodide (PI) exclusion in SH-SY5Y cells; type: cell-based, Human; conditions: SH-SY5Y cells challenged with mouse α-Syn PFF for seven days; vs untreated α-Syn PFF-challenged cells (2.5 fold increase of PI positive cells)
[12] = tested on: α-Syn PFF inoculated WT mice; experiment: Rotarod, α-Syn PFF inoculated WT mice; type: in vivo; conditions: EHT 12 mg/kg/day in diet and/or caffeine 50 mg/kg/day in drinking water from weaning, 6 months post-inoculation
Text: as §1, with “All animal procedures were approved by the Rutgers-Robert Wood Johnson Medical School Institutional Animal Care and Use Committee and were performed according to the National Institutes of Health Guide for the Care and Use of Laboratory Animals.” left out

[13] = tested on: PP2A; experiment: Western blot of PP2A methylation in SH-SY5Y cells challenged with α-Syn PFF; type: cell-based, Human; conditions: SH-SY5Y cells challenged with mouse α-Syn PFF for 7 days; caffeine and/or EHT added to the medium
Description: as §2

[14] = tested on: TH positive dopaminergic neurons of the substantia nigra; experiment: Nigral TH positive neuron count, α-Syn PFF inoculated WT mice; type: in vivo; conditions: each compound individually, PFF alone reduced neurons by 51% vs PBS
Text: as §1, with “All animal procedures were approved by the Rutgers-Robert Wood Johnson Medical School Institutional Animal Care and Use Committee and were performed according to the National Institutes of Health Guide for the Care and Use of Laboratory Animals.” left out

[15] = tested on: Syn^Tg mice; experiment: Nesting behavior, Syn^Tg mice; type: in vivo; conditions: EHT 12 mg/kg/day in chow and/or caffeine 50 mg/kg/day in drinking water from weaning until six months of age, vs untreated Syn^Tg mice
Text: as §1, with “All animal procedures were approved by the Rutgers-Robert Wood Johnson Medical School Institutional Animal Care and Use Committee and were performed according to the National Institutes of Health Guide for the Care and Use of Laboratory Animals.” left out

[16] = tested on: α-Syn PFF inoculated WT mice; experiment: Nesting behavior, α-Syn PFF inoculated WT mice; type: in vivo; conditions: EHT 12 mg/kg/day in diet and/or caffeine 50 mg/kg/day in drinking water from weaning, 6 months post-inoculation
Text: as §1, with “All animal procedures were approved by the Rutgers-Robert Wood Johnson Medical School Institutional Animal Care and Use Committee and were performed according to the National Institutes of Health Guide for the Care and Use of Laboratory Animals.” left out

[17] = tested on: A53T mutant α-synuclein fibril injections in the striatum; conditions: mice, chronic caffeine treatment; cited from earlier work
[18] = tested on: PP2A; experiment: Western blot of PP2A methylation, ipsilateral striatal tissue lysates of α-Syn PFF inoculated mice; type: in vivo; conditions: EHT 12 mg/kg/day and/or caffeine 50 mg/kg/day, vs untreated α-Syn PFF inoculated mice
Text: as §1
α-Syn PFF solution was sonicated at 60% amplitude 30 times (0.5 sec on, 0.5 sec off). During the stereotactic surgery, two month old WT C57BL/6 mice were anesthetized by Ketamine/xylazine (90/4.5 mg/kg, i.p., Ketaset from Zoetis, and Anased from Akorn) and positioned in a digital stereotaxic apparatus (Stoelting, Wood Dale, Ill.). […]
as §3

[19] = tested on: α-Syn PFF inoculated WT mice; experiment: Morris Water Maze, α-Syn PFF inoculated WT mice; type: in vivo; conditions: EHT 12 mg/kg/day and/or caffeine 50 mg/kg/day, 6 months post-inoculation, test also not affected by PFF inoculation
Text: as §1, with “All animal procedures were approved by the Rutgers-Robert Wood Johnson Medical School Institutional Animal Care and Use Committee and were performed according to the National Institutes of Health Guide for the Care and Use of Laboratory Animals.” left out

[20] = tested on: MAP2; experiment: Immunofluorescence staining of MAP2 in the cortex, Syn^Tg mice; type: in vivo; conditions: EHT 12 mg/kg/day and/or caffeine 50 mg/kg/day until six months of age
Text: as §1, with “All animal procedures were approved by the Rutgers-Robert Wood Johnson Medical School Institutional Animal Care and Use Committee and were performed according to the National Institutes of Health Guide for the Care and Use of Laboratory Animals.” left out

Cn1c(=O)c2c(ncn2C)n(C)c1=O [Caffeine, 1,3,7-trimethylxanthine, reference compound]
Demethylated PP2A (demethyl-PP2A) levels [1]: not affected | Methylated PP2A (Methyl-PP2A) levels [1]: did not change | performance on the rotarod [2]: did not show any improvement | p-α-Syn levels [3]: no effect | TH staining of dopaminergic terminals in the striatum (ipsilateral and contralateral) [4]: no effect | performance on the Morris Water Maze [5]: did not show any improvement | p-α-Syn in the contralateral striatum [6]: partially but insignificantly reduced | p-α-Syn in the ipsilateral striatum [6]: partially but insignificantly reduced | p-α-Syn levels by Western blot, cortical tissue lysates [7]: no significant effect | performance on the wire hang test [8]: did not affect performance | performance on the wire hang test [9]: did not show any improvement | dopamine (DA) content in lysates of the ipsilateral striatum, benefit in words [10]: did not have a significant benefit | cytotoxicity of α-Syn PFF, number of PI positive cells (cell viability) [11]: modestly protected | performance on the rotarod [12]: did not affect performance | demethylated PP2A levels [13]: partially reversed this trend | methylated PP2A levels [13]: partially reversed this trend | prevention of the reduction of TH positive dopaminergic neurons of the substantia nigra [14]: did not prevent this reduction | nesting behavior [15]: did not show any improvement | nesting behavior (nest building) [16]: did not affect performance | protection against A53T mutant α-synuclein fibril injections in the striatum [17]: protect | methyl-PP2A levels [18]: insignificant increase | Learning and memory task on the Morris Water Maze [19]: not affected | MAP2 in the cortex (neuritic integrity) [20]: did not improve this profile
